ChEMBL document CHEMBL5465560, “Selectivity Literature for EUbOPEN Chemogenomic Library” (2024)
Blank lines part the entries; values can stand above or below the molecule they belong to.

What was measured:
Details in all cases: at 10 µM
[1] = target: Serine/threonine-protein kinase SIK1 (Homo sapiens) (UniProt P57059); test: Selectivity interaction (KinomeScan (DiscoverX)) EUB0000607a SIK1
[2] = target: T1, Serine/threonine-protein kinase Nek2 (Homo sapiens) (UniProt P51955)
T1 sequence (whole entry): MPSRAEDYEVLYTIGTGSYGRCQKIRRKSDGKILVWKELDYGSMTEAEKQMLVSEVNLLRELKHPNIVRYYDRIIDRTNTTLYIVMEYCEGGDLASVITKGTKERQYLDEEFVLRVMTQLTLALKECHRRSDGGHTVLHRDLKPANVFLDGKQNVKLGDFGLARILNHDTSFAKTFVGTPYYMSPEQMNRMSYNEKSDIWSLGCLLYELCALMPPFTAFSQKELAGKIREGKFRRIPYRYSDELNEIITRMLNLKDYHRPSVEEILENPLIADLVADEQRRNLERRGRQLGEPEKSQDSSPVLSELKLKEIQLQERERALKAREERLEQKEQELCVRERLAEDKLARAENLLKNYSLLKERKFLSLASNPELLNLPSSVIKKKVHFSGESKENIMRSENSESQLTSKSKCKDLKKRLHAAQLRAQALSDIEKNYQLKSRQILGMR

[3] = target: T2, cGMP-dependent protein kinase 2 (Homo sapiens) (UniProt Q13237); test: Selectivity interaction (KinomeScan (DiscoverX)) EUB0000655a PRKG2
T2 sequence (whole entry): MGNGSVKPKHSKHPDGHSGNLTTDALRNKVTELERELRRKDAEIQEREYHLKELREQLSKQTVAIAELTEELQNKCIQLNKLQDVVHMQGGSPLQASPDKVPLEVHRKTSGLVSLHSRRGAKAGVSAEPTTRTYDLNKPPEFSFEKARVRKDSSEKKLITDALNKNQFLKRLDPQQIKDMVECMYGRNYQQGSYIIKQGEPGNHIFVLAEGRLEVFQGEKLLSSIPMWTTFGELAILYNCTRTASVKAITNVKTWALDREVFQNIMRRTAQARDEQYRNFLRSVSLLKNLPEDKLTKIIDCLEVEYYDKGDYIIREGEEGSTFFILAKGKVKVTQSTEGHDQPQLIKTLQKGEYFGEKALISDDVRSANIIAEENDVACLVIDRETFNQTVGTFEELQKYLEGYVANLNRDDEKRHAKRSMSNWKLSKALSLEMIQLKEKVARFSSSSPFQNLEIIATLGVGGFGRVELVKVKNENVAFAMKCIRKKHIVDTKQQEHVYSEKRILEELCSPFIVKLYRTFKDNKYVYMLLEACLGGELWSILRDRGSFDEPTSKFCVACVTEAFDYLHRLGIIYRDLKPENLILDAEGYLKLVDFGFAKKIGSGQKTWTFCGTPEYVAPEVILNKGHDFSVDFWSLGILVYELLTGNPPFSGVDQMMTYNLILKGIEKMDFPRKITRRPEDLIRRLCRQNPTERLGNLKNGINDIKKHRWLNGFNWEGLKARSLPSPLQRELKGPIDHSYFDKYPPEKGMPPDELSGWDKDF

[4] = target: Serine/threonine-protein kinase PAK 6 (Homo sapiens) (UniProt Q9NQU5)
[5] = target: T3, Ephrin type-B receptor 2 (Homo sapiens) (UniProt P29323); test: Selectivity interaction (KinomeScan (DiscoverX)) EUB0000618a EPHB2
T3 sequence (whole entry): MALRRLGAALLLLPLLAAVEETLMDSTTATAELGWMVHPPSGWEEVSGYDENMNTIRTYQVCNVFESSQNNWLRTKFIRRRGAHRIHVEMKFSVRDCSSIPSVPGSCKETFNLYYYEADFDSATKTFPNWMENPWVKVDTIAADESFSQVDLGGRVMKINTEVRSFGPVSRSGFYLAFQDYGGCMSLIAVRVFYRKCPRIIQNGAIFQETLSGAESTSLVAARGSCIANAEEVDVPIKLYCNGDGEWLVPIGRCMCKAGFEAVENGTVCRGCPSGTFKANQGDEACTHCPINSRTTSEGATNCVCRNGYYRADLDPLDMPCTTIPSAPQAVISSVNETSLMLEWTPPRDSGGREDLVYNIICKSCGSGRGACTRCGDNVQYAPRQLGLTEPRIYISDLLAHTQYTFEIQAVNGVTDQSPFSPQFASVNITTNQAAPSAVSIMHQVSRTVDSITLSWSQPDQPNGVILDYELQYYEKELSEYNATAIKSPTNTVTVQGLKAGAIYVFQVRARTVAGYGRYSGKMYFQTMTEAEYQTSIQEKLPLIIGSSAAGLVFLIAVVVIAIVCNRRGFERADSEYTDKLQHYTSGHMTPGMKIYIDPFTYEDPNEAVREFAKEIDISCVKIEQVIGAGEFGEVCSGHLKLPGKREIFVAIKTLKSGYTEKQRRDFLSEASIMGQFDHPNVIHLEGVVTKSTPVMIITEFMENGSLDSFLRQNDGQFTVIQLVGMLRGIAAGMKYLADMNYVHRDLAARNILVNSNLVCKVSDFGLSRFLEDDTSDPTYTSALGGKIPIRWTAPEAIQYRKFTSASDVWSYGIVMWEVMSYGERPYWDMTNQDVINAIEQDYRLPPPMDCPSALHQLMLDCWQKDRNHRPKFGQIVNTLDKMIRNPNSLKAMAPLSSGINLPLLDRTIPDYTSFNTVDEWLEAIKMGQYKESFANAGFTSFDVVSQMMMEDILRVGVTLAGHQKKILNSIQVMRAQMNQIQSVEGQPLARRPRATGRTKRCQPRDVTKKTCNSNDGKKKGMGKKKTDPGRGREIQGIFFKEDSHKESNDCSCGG

Sequence of Serine/threonine-protein kinase PAK 6 (Homo sapiens) (Q9NQU5 whole entry, looked up): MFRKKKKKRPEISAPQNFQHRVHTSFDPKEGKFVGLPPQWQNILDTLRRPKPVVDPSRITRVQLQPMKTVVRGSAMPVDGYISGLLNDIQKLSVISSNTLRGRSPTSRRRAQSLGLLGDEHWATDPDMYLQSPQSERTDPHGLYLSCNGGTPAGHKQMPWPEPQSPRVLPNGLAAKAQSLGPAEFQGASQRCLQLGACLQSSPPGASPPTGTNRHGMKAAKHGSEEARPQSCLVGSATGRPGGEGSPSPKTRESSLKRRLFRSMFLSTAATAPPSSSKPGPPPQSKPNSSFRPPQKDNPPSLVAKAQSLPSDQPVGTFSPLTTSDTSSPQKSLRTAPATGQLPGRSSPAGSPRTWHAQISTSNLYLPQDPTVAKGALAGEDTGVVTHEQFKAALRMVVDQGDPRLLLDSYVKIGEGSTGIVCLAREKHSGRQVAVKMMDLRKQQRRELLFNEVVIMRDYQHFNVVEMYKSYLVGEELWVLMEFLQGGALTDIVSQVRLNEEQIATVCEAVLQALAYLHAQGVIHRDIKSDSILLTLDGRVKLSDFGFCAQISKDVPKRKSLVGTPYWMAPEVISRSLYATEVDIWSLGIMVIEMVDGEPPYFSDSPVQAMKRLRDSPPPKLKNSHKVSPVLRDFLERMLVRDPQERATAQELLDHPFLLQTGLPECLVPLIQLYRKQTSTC
Sequence of Serine/threonine-protein kinase SIK1 (Homo sapiens) (P57059 whole entry): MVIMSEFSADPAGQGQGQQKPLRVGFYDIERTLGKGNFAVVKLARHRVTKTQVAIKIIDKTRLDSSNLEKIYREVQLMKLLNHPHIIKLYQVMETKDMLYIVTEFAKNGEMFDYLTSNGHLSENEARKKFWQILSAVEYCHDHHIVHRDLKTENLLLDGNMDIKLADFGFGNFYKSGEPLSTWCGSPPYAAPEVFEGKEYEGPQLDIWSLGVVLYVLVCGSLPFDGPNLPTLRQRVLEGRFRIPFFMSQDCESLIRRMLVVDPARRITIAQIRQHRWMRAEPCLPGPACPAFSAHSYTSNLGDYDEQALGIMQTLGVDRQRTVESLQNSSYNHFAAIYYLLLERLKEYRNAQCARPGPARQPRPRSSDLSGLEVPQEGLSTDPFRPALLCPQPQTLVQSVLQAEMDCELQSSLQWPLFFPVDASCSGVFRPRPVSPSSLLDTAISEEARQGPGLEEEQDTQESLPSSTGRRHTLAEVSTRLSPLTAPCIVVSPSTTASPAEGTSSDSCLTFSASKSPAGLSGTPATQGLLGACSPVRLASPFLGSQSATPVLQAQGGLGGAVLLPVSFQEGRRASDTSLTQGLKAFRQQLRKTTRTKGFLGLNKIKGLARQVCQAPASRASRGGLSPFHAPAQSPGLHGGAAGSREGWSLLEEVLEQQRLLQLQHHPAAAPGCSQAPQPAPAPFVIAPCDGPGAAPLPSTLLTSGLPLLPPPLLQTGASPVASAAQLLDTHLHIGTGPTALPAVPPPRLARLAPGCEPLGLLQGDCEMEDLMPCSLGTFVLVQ

SMILES: CNC(=O)Nc1ccc(-c2nc(N3CC4CCC(C3)O4)c3cnn(C4CCC5(CC4)OCCO5)c3n2)cc1
- % of control [1]: 86%

- % of control [2]: 100%
SMILES: CCN(CC)CCCCNc1ncc2cc(-c3cc(OC)cc(OC)c3)c(NC(=O)NC(C)(C)C)nc2n1

SMILES: CN(C)CCOc1ccc(-c2nc(-c3ccncc3)c(-c3ccc4c(c3)CC/C4=N\O)[nH]2)cc1
- % of control [3]: 29%

SMILES: Cc1cc([C@@H](C)Nc2ccccc2C(=O)O)c2nc(N3CCOCC3)cc(=O)n2c1 [AZD-6482]
- % of control [4]: 99%

SMILES: O[C@H]1CC[C@H](Nc2ncc3nc(Nc4c(F)cc(F)cc4F)n([C@H]4CCOC4)c3n2)CC1
- % of control [5]: 72%
